Patent US10953012B2, “Heterocyclic compounds for the inhibition of pask” (BioEnergenix LLC, priority 2011, dated 2021)

What was measured:
PASK [1] = molecular target: PASK (UniProt #Q96RG2; residues 879-1323) (Homo sapiens (Human), UniProt Q96RG2); test: PASK ATP Radiochemical Assay; type: biochemical; conditions: 33P-ATP radiochemical assay; read-out: IC50 Kinase Domain
Description: PASK ATP Radiochemical Assay Purified PASK (UniProt #Q96RG2; human recombinant N-terminal GST tagged construct, residues 879-1323) from insect cells (final concentration 5 nM) is added to freshly prepared Base Reaction Buffer containing 20 mM HEPES (pH 7.5), 10 mM MgCl2, 1 mM EGTA, 0.02% Brij35, 0.02 mg/ml BSA, 0.1 mM Na3VO4, 2 mM DTT, 1% DMSO and Myelin Basic Protein (20 μM final). Test compounds in DMSO are then added and the mixture, followed by delivery of ^33P-ATP (specific activity 0.01 μCi/μl final) to initiate the reaction. The kinase reaction is incubated for 120 min at room temperature. The entire reaction mixture is washed through onto a P81 Phosphocellulose paper and washed three times for 10 minutes in 75 mM phosphoric acid and once in methanol prior to drying and scintillation counting.

CK2a2 = CK2a2 (Homo sapiens (Human), UniProt P19784); test: Biochemical Assay for CK2 Activity; conditions: 33P-ATP radiochemical assay; read-out: IC50 CK2 a2
Sequence of CK2a2 (P19784 whole entry): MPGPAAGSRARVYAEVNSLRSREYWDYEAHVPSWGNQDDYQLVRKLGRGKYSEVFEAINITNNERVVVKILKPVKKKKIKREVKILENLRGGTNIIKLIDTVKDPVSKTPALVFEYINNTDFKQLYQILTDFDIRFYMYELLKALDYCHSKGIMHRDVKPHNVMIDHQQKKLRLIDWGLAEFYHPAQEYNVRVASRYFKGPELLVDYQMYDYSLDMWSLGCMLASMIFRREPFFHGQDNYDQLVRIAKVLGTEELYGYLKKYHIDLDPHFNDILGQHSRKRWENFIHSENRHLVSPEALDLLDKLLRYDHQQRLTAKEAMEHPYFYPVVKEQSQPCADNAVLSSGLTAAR
Description: Biochemical Assay for CK2 Activity
Purified CK2a2 (NP_001887; human full-length protein, GST tagged) from insect cells (final concentration 1.2 nM) is added to freshly prepared Base Reaction Buffer containing 20 mM Hepes (pH 7.5), 10 mM MgCl2, 1 mM EGTA, 0.02% Brij35, 0.02 mg/ml BSA, 0.1 mM Na3VO4, 2 mM DTT, 1% DMSO and CK2 sub [RRRDDDSDDD] (20 μM final). Test compounds in DMSO are then added and the mixture, followed by delivery of ^33P-ATP (specific activity 0.01 μCi/μl final) to initiate the reaction. The kinase reaction is incubated for 120 min at room temperature. The entire reaction mixture is washed through onto a P81 Phosphocellulose paper and washed three times for 10 minutes in 75 mM phosphoric acid and once in methanol prior to drying and scintillation counting.

PASK [2] = molecular target: PASK (Homo sapiens (Human), UniProt Q96RG2); test: PAS Kinase FRET Assay; type: biochemical; conditions: TR-FRET assay; read-out: IC50 Kinase Domain
Sequence of PASK (Homo sapiens (Human), UniProt Q96RG2) (Q96RG2 999-1251): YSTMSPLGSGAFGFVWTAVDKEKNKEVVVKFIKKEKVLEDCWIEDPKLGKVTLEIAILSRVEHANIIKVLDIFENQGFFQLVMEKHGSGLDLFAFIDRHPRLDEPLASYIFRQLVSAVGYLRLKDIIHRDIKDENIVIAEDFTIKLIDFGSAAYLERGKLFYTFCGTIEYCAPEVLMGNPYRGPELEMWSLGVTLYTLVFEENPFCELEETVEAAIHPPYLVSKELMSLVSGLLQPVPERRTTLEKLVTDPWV
In short: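 TR-FRET read-out (665/615 nm) of ULight-peptide phosphorylation by PASK, detected with Eu-labelled anti-phospho antibody. Compound, kinase and substrate/ATP reacted 2 h at 25 °C in the dark in 50 mM HEPES, 10 mM MgCl2, 1 mM EGTA, 0.01% Tween-20, 2 mM DTT. Eleven-point dilution series made at 4× final.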

Sequence of PASK (UniProt #Q96RG2; residues 879-1323) (Homo sapiens (Human), UniProt Q96RG2) (Q96RG2 879-1323): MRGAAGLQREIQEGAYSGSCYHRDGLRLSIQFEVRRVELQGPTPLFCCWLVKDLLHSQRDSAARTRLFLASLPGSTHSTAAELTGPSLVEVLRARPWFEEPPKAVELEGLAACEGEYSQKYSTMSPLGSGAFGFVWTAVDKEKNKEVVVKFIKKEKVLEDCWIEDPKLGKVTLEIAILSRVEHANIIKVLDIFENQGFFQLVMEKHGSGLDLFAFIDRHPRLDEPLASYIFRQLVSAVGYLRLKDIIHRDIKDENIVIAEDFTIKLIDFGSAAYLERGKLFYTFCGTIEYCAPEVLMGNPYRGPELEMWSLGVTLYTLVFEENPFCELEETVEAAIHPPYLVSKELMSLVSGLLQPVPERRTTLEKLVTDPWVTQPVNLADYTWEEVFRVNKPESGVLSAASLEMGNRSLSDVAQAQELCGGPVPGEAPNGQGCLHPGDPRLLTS

SMILES	IC50 (PASK [1]) [µM]	IC50 (CK2a2) [µM]	IC50 (PASK [2]) [µM]
O=c1cc(-c2ccc3c(c2)CCO3)[nH]c2c(-c3cccnc3)c(O)nn12 [Example 130, 5-(2,3-Dihydrobenzofuran-5-yl)-2-hydroxy-3-(pyridin-3-yl)pyrazolo[1,5-a]pyrimidin-7(4H)-one]	≤ 10	≤ 10	≤ 10
O=c1cc(-c2ccc3occc3c2)[nH]c2c(-c3ccccn3)c(O)nn12 [Example 131, 5-(Benzofuran-5-yl)-2-hydroxy-3-(pyridin-2-yl)pyrazolo[1,5-a]pyrimidin-7(4H)-one]	≤ 10	≤ 10	≤ 10
O=c1cc(-c2ccc3c(c2)OCO3)[nH]c2c(Cc3ccccc3)cnn12 [Example 133, 5-(Benzo[d][1,3]dioxol-5-yl)-3-benzylpyrazolo[1,5-a]pyrimidin-7(4H)-one]	≤ 10	≤ 10	≤ 10
COc1ccccc1-c1cc(=O)n2ncc(-c3ccccn3)c2[nH]1 [Example 135, 5-(2-Methoxyphenyl)-3-(pyridin-2-yl)pyrazolo[1,5-a]pyrimidin-7(4H)-one]	≤ 10	≤ 10	≤ 10
O=c1cc(-c2ccc(F)cc2)[nH]c2c(-c3ccccn3)c(O)nn12 [Example 137, 5-(4-Fluorophenyl)-2-hydroxy-3-(pyridin-2-yl)pyrazolo[1,5-a]pyrimidin-7(4H)-one]	≤ 10	≥ 10	≤ 10
Nc1nn2c(=O)cc(-c3ccc(Cl)cc3)[nH]c2c1-c1ccccc1 [Example 141, 2-Amino-5-(4-chlorophenyl)-3-phenylpyrazolo[1,5-a]pyrimidin-7(4H)-one]	≤ 10	≤ 10	≤ 10
Nc1nn2c(=O)cc(-c3ccc4c(c3)OCCO4)[nH]c2c1-c1ccccc1 [Example 142, 2-Amino-5-(2,3-dihydrobenzo[b][1,4]dioxin-6-yl)-3-phenylpyrazolo[1,5-a]pyrimidin-7(4H)-one]	≤ 10	≤ 10	≤ 10
CN(Cc1ccccc1)C(=O)c1cnn2c(=O)cc(-c3ccc4c(c3)OCCO4)[nH]c12 [Example 143, N-Benzyl-5-(2,3-dihydrobenzo[b][1,4]dioxin-6-yl)-N-methyl-7-oxo-4,7-dihydropyrazolo[1,5-a]pyrimidine-3-carboxamide]	≤ 10	≤ 10	≤ 10
O=C(NCc1ccccc1)c1cnn2c(=O)cc(-c3ccc(Cl)cc3)[nH]c12 [Example 144, N-Benzyl-5-(4-chlorophenyl)-7-oxo-4,7-dihydropyrazolo[1,5-a]pyrimidine-3-carboxamide]	≤ 10	≤ 10	≤ 10
CCCNC(=O)c1cnn2c(=O)cc(-c3ccc4c(c3)OCCO4)[nH]c12 [Example 145, 5-(2,3-Dihydrobenzo[b][1,4]dioxin-6-yl)-7-oxo-N-propyl-4,7-dihydropyrazolo[1,5-a]pyrimidine-3-carboxamide]	≤ 10	≤ 10	≤ 10
O=c1cc(-c2ccc3occc3c2)[nH]c2c(-c3cccnc3)c(O)nn12 [Example 147, 5-(Benzofuran-5-yl)-2-hydroxy-3-(pyridin-3-yl)pyrazolo[1,5-a]pyrimidin-7(4H)-one]	≤ 10	≤ 10	≤ 10
Nc1nn2c(=O)cc(-c3ccc4c(c3)OCCO4)[nH]c2c1-c1ccccn1 [Example 148, 2-Amino-5-(2,3-dihydrobenzo[b][1,4]dioxin-6-yl)-3-(pyridin-2-yl)pyrazolo[1,5-a]pyrimidin-7(4H)-one]	≤ 10	≤ 10	≤ 10
Nc1nn2c(=O)cc(-c3ccc4c(c3)OCO4)[nH]c2c1-c1ccccn1 [Example 150, 2-Amino-5-(benzo[d][1,3]dioxol-5-yl)-3-(pyridin-2-yl)pyrazolo[1,5-a]pyrimidin-7(4H)-one]	≤ 10	≤ 10	≤ 10
Nc1nn2c(=O)cc(-c3ccc(Cl)cc3)[nH]c2c1-c1ccccn1 [Example 152, 2-Amino-5-(4-chlorophenyl)-3-(pyridin-2-yl)pyrazolo[1,5-a]pyrimidin-7(4H)-one]	≤ 10	≤ 10	≤ 10
CC(=O)Nc1nn2c(=O)cc(-c3ccc4c(c3)OCO4)[nH]c2c1-c1ccccn1 [Example 155, N-(5-(Benzo[d][1,3]dioxol-5-yl)-7-oxo-3-(pyridin-2-yl)-4,7-dihydropyrazolo[1,5-a]pyrimidin-2-yl)acetamide]	≤ 10	≤ 10	≤ 10
CCNc1nn2c(=O)cc(-c3ccc4c(c3)OCO4)[nH]c2c1-c1ccccn1 [Example 156, 5-(Benzo[d][1,3]dioxol-5-yl)-2-(ethylamino)-3-(pyridin-2-yl)pyrazolo[1,5-a]pyrimidin-7(4H)-one]	≤ 10	≤ 10	≤ 10
O=c1cc(-c2ccc3c(c2)OC(F)(F)O3)[nH]c2c(-c3ccccn3)cnn12 [Example 158, 5-(2,2-Difluorobenzo[d][1,3]dioxol-5-yl)-3-(pyridin-2-yl)pyrazolo[1,5-a]pyrimidin-7(4H)-one]	≤ 10	≤ 10	≤ 10
Nc1nn2c(=O)cc(-c3ccc4[nH]ncc4c3)[nH]c2c1-c1ccccn1 [Example 159, 2-Amino-5-(1H-indazol-5-yl)-3-(pyridin-2-yl)pyrazolo[1,5-a]pyrimidin-7(4H)-one]	≤ 10	≤ 10	≤ 10
O=c1cc(-c2ccc3[nH]ncc3c2)[nH]c2c(-c3ccccn3)cnn12 [Example 160, 5-(1H-Indazol-5-yl)-3-(pyridin-2-yl)pyrazolo[1,5-a]pyrimidin-7(4H)-one]	≤ 10	≤ 10	≤ 10
CCc1nn2c(=O)cc(-c3ccc4c(c3)OCO4)[nH]c2c1-c1ccccn1 [Example 161, 5-(Benzo[d][1,3]dioxol-5-yl)-2-ethyl-3-(pyridin-2-yl)pyrazolo[1,5-a]pyrimidin-7(4H)-one]	≤ 10	≤ 10	≤ 10
Nc1nn2c(=O)cc(-c3ccc(Cl)cc3F)[nH]c2c1-c1ccccn1 [Example 163, 2-Amino-5-(4-chloro-2-fluorophenyl)-3-(pyridin-2-yl)pyrazolo[1,5-a]pyrimidin-7(4H)-one]	≤ 10	≤ 10	≤ 10
O=c1cc(-c2ccc3c(c2)OCO3)[nH]c2c(-c3ncccc3F)cnn12 [Example 164, 5-(Benzo[d][1,3]dioxol-5-yl)-3-(3-fluoropyridin-2-yl)pyrazolo[1,5-a]pyrimidin-7(4H)-one]	≤ 10	≤ 10	≤ 10
Nc1nn2c(=O)cc(-c3ccc(F)cc3)[nH]c2c1-c1ccccn1 [Example 171, 2-Amino-5-(4-fluorophenyl)-3-(pyridin-2-yl)pyrazolo[1,5-a]pyrimidin-7(4H)-one]	≤ 10	≤ 10	≤ 10
Nc1nn2c(=O)cc(-c3ccc4[nH]nnc4c3)[nH]c2c1-c1ccccn1 [Example 191, 2-Amino-5-(1H-benzo[d][1,2,3]triazol-5-yl)-3-(pyridin-2-yl)pyrazolo[1,5-a]pyrimidin-7(4H)-one]	≤ 10	≤ 10	≤ 10
O=c1cc(-c2ccc3[nH]nnc3c2)[nH]c2c(-c3ccccn3)c(O)nn12 [Example 193, 5-(1H-Benzo[d][1,2,3]triazol-5-yl)-2-hydroxy-3-(pyridin-2-yl)pyrazolo[1,5-a]pyrimidin-7(4H)-one]	≤ 10	≤ 10	≤ 10
CCCNC(=O)c1c(N)nn2c(=O)cc(-c3ccc4c(cnn4C)c3)[nH]c12 [Example 197, 2-Amino-5-(1-methyl-1H-indazol-5-yl)-7-oxo-N-propyl-4,7-dihydropyrazolo[1,5-a]pyrimidine-3-carboxamide]	≤ 10	≤ 10	≤ 10
CCCNC(=O)c1c(N)nn2c(=O)cc(-c3ccc4[nH]ncc4c3)[nH]c12 [Example 198, 2-Amino-5-(1H-indazol-5-yl)-7-oxo-N-propyl-4,7-dihydropyrazolo[1,5-a]pyrimidine-3-carboxamide]	≤ 10	≤ 10	≤ 10
Nc1nn2c(=O)cc(-c3ccc4[nH]nnc4c3)[nH]c2c1-c1ccccc1 [Example 199, 2-Amino-5-(1H-benzo[d][1,2,3]triazol-5-yl)-3-phenylpyrazolo[1,5-a]pyrimidin-7(4H)-one]	≤ 10	≤ 10	≤ 10
